Data set [1] is filed under the species Rattus norvegicus. The experiment in a line: animal or person. The following applies: Wistar, po, read-out: INH.
Data set [2] is filed under the species Rattus norvegicus. The experiment in a line: animal or person. The following applies: Wistar, po, read-out: INH. This is another data set of the same source.
Another data set in a line: physchem. The following applies: n-octanol/water.
For data set [3], the species on record is Rattus norvegicus. The following applies: in vivo, po, 10 mg/kg, 17 h.
The species named for a further data set is Mus musculus. The experiment in a line: animal or person. The following applies: Swiss, po, 3 h, read-out: INH.

Broadly, the logP is a log measure of how a compound divides between an organic and an aqueous phase. The low end stands for lower lipophilicity, the high end for higher lipophilicity.

SMILES strings stand for the structures.

Description for physchem: n-Octanol-water partition coefficient, log P of the compound

As for `Cc1ccc(C(=O)Nc2ccccc2C(=O)N/N=C/c2ccccc2)cc1`, the inhibition in vivo at 10 mg/kg in the data set listed under Rattus norvegicus [1] amounted to 15.2%; in the data set listed under Rattus norvegicus [2], 15.9%. For the same compound, in “physchem”, the logP was 4.61.

Regarding `Cc1ccc(C(=O)Nc2ccccc2C(=O)N/N=C/c2ccc(O)cc2)cc1`, the inhibition in vivo at 10 mg/kg came out at 19.5% in the data set listed under Rattus norvegicus [1] and 23.3% in the data set filed under Rattus norvegicus [2]. This compound came in with a logP in “physchem” of 4.14.

As for `Cc1ccc(C(=O)Nc2ccccc2C(=O)N/N=C/c2ccc(O)c(O)c2)cc1`, the inhibition in vivo at 10 mg/kg in the data set filed under Rattus norvegicus [1] is 55.3%; in the data set filed under Rattus norvegicus [2], 55.1%; in the data set listed under Mus musculus, 77.8%. In the data set listed under Rattus norvegicus [3], this compound had a UI of 1.417. Further, the logP in the data set “physchem” was 4.02.

Consider `COc1cc(/C=N/NC(=O)c2ccccc2NC(=O)c2ccc(C)cc2)ccc1O`, for which the inhibition in vivo at 10 mg/kg in the data set filed under Rattus norvegicus [1] came out at 19.5%; in the data set filed under Rattus norvegicus [2], 23.3%. The lipophilicity (logP) in “physchem” was determined as 4.1.

Turning to `Cc1ccc(C(=O)Nc2ccccc2C(=O)N/N=C/c2ccc(Cl)cc2Cl)cc1`, the figures for the inhibition in vivo at 10 mg/kg in the data set filed under Rattus norvegicus [1] and in the data set listed under Rattus norvegicus [2] were 0.35% and 1.06%, respectively. This compound displayed a lipophilicity (logP) in the data set “physchem” of 6.12.

In the case of `COc1ccc(/C=N/NC(=O)c2ccccc2NC(=O)c2ccc(C)cc2)cc1`, the inhibition in vivo at 10 mg/kg in the data set listed under Rattus norvegicus [1] stood at 19.3%; in the data set filed under Rattus norvegicus [2], 22.6%. This compound also yielded a logP in the data set “physchem” of 4.66.

Turning to `COc1cc(OC)c(OC)cc1/C=N/NC(=O)c1ccccc1NC(=O)c1ccc(C)cc1`, the inhibition in vivo at 10 mg/kg came to 62.4% in the data set filed under Rattus norvegicus [1], 62.2% in the data set listed under Rattus norvegicus [2] and 46.2% in the data set filed under Mus musculus. The same compound had a UI in the data set listed under Rattus norvegicus [3] of 1.75. Moreover, the log partition coefficient (logP) in “physchem” was 4.23.

As to `COc1cc(/C=N/NC(=O)c2ccccc2NC(=O)c2ccc(C)cc2)cc(OC)c1OC`, the values for the inhibition in vivo at 10 mg/kg in the data set listed under Rattus norvegicus [1], in the data set filed under Rattus norvegicus [2] and in the data set listed under Mus musculus were 62.8%, 64.3% and 34.2%, respectively. The compound further came in with a UI in the data set listed under Rattus norvegicus [3] of 1.583. The compound further displayed a logP in “physchem” of 4.63.

Take `COc1cc(OC)c(/C=N/NC(=O)c2ccccc2NC(=O)c2ccc(C)cc2)c(OC)c1`: the inhibition in vivo at 10 mg/kg in the data set listed under Rattus norvegicus [1] was 13.1%; in the data set filed under Rattus norvegicus [2] it was 14.5%. The compound further came in with a logP in “physchem” of 4.87.

Regarding `Cc1ccc(C(=O)Nc2ccccc2C(=O)N/N=C/c2ccc(N(C)C)cc2)cc1`, the inhibition in vivo at 10 mg/kg in the data set listed under Rattus norvegicus [1] and in the data set filed under Rattus norvegicus [2] was 22.3% throughout. The logP in “physchem” was determined as 4.41.

Source of the values: ChEMBL document CHEMBL3414520, “Synthesis, analgesic, anti-inflammatory and anti-ulcerogenic activities of certain novel Schiff's bases as fenamate isosteres” (Bioorg Med Chem Lett, 2015).
